Results as given in article PMC10489980, “Design of Potent and Salt-Insensitive Antimicrobial Branched Peptides” (Polymers, 2023).
Like-named read-outs stand apart in the source and are kept apart here. Residues, ends and D or L forms follow the SMILES beside them.

Experiments:
Format in all cases: cell-based
[1] = test system: Micrococcus luteus ATCC 49,732
Excerpt: (§1) Ten organisms obtained from the American Type Culture Collection (ATCC; Rockville, MD) were used for antimicrobial assays. Four Gram-negative bacteria included Escherichia coli ATCC 25922, Pseudomonas aeruginosa ATCC 27853, Klebsiella oxytoca ATCC 49131, and Proteus vulgaris ATCC 49132. The three Gram-positive bacteria were Staphylococcus aureus 29213, Micrococcus luteus ATCC 49,732, and Enterococcus faecalis ATCC 29212. The three fungi were Candida albicans ATCC 37092, Candida kefyr ATCC 37095, and Candida tropicalis ATCC 37097. The clinical isolates were obtained from Singapore General Hospital (SGH). They are Enterococcus faecium, Staphylococcus aureus, Klebsiella pneumoniae, Acinetobacter baumannii, Pseudomonas aeruginosa, and Enterobacter species. The strains were incubated in trypticase soy broth (TSB), which was prepared in double distilled water and autoclaved for sterilization. TSB was purchased from Becton-Dickinson (Cockeysville, MD, USA).
(§2) Antimicrobial Assays. A sensitive and reproducible two-stage radial diffusion antimicrobial assay of Lehrer et al. was employed. A 1–4 × 10^6 colony-forming unit/mL of the test organism was mixed with 10 mL of molten underlay gel solution and poured into Petri dishes to form a uniform layer. The gel solution consisted of 10 mM sodium phosphate buffer, 0.03% TSB, and 0.02% Tween-20, with the addition of 100 mM NaCl in the case of high-salt conditions. Upon gel solidification, gel wells were made by a 3-mm diameter template in an evenly spaced array. A 5 µL aliquot of a serial half-log dilution of test peptides at seven concentrations was added to each well after removal of gel plugs. The dishes were incubated at 37 °C for 3 h to allow peptide diffusion into the underlay gels. Gels were overlaid with 10 mL of 1% agarose in 6% TSB (wt/vol). After additional incubation at 37 °C for 16–24 h, the diameter of the clear zone surrounding the wells (colony-free) was measured under a microscope. Antimicrobial activities were expressed in units (0.1 mm = 1 unit), and the MICs (in µM) were determined from the x-intercepts of the dose-response curves. Experiments were performed in triplicates.

Candida kefyr ATCC 37095 = test system: Candida kefyr ATCC 37095
Excerpt: as §1, §2

[2] = test system: Candida albicans ATCC 37092
Excerpt: as §1, §2

[3] = test system: Candida tropicalis ATCC 37097
Excerpt: as §1, §2

[4] = test system: Pseudomonas aeruginosa ATCC 27853
Excerpt: as §1, §2

[5] = test system: Enterococcus faecalis ATCC 29212
Excerpt: as §1, §2

[6] = test system: Proteus vulgaris ATCC 49132
Excerpt: as §1, §2

[7] = test system: Escherichia coli ATCC 25922
Excerpt: as §1, §2

[8] = test system: Klebsiella oxytoca ATCC 49131
Excerpt: as §1, §2

[9] = test system: Staphylococcus aureus 29213
Excerpt: as §1, §2

MIC, M. luteus, H-Salt ([1]; ATCC 49, 3 h) [µM]	MIC, M. luteus, L-Salt ([1]; ATCC 49, 3 h) [µM]	MIC, C. kefyr, H-Salt (Candida kefyr ATCC 37095; ATCC 37095, 3 h) [µM]	MIC, C. kefyr, L-Salt (Candida kefyr ATCC 37095; ATCC 37095, 3 h) [µM]	MIC, C. albicans, H-Salt ([2]; ATCC 37092, 3 h) [µM]	MIC, C. albicans, L-Salt ([2]; ATCC 37092, 3 h) [µM]	MIC, C. tropicalis, H-Salt ([3]; ATCC 37097, 3 h) [µM]	MIC, C. tropicalis, L-Salt ([3]; ATCC 37097, 3 h) [µM]	MIC, P. aeruginosa, H-Salt ([4]; ATCC 27853, 3 h) [µM]	MIC, P. aeruginosa, L-Salt ([4]; ATCC 27853, 3 h) [µM]	MIC, E. faecalis, H-Salt ([5]; ATCC 29212, 3 h) [µM]	MIC, E. faecalis, L-Salt ([5]; ATCC 29212, 3 h) [µM]	MIC, P. vulgaris, H-Salt ([6]; ATCC 49132, 3 h) [µM]	MIC, P. vulgaris, L-Salt ([6]; ATCC 49132, 3 h) [µM]	MIC, E. coli, H-Salt ([7]; ATCC 25922, 3 h) [µM]	MIC, E. coli, L-Salt ([7]; ATCC 25922, 3 h) [µM]	MIC, K. oxytoca, H-Salt ([8]; ATCC 49131, 3 h) [µM]	MIC, K. oxytoca, L-Salt ([8]; ATCC 49131, 3 h) [µM]	MIC, S. aureus, H-Salt ([9]; 29213, 3 h) [µM]	MIC, S. aureus, L-Salt ([9]; 29213, 3 h) [µM]	Structure (SMILES)	further results
2.0	0.8	0.5	0.6	0.8	0.6	0.6	0.9	3.8	1.0	> 500	2.2	7.8	8.2	9.2	0.7	6.2	1.2	6.4	1.9	CC(C)C[C@H](NC(=O)[C@@H](N)CCCNC(=N)N)C(=O)N[C@@H](Cc1ccc(O)cc1)C(=O)N[C@@H](CCCNC(=N)N)C(=O)NCCC[C@H](NC(=O)[C@H](CCCNC(=N)N)NC(=O)[C@H](Cc1ccc(O)cc1)NC(=O)[C@H](CC(C)C)NC(=O)[C@@H](N)CCCNC(=N)N)C(=O)NCCC[C@H](NC(=O)[C@H](CCCNC(=N)N)NC(=O)[C@H](Cc1ccc(O)cc1)NC(=O)[C@H](CC(C)C)NC(=O)[C@@H](N)CCCNC(=N)N)C(=O)NCCC[C@H](NC(=O)[C@H](CCCNC(=N)N)NC(=O)[C@H](Cc1ccc(O)cc1)NC(=O)[C@H](CC(C)C)NC(=O)[C@@H](N)CCCNC(=N)N)C(=O)NCCC[C@H](NC(=O)[C@H](CCCNC(=N)N)NC(=O)[C@H](Cc1ccc(O)cc1)NC(=O)[C@H](CC(C)C)NC(=O)[C@@H](N)CCCNC(=N)N)C(N)=O [iO5R] (HELM PEPTIDE1{R.L.Y.R.[Orn]}|PEPTIDE2{R.L.Y.R}|PEPTIDE3{R.L.Y.R.[Orn]}|PEPTIDE4{R.L.Y.R.[Orn]}|PEPTIDE5{R.L.Y.R.[Orn].[am]}$PEPTIDE1,PEPTIDE2,5:R3-4:R2|PEPTIDE1,PEPTIDE3,5:R2-5:R3|PEPTIDE3,PEPTIDE4,5:R2-5:R3|PEPTIDE4,PEPTIDE5,5:R2-5:R3$$$V2.0; N-terminus assumed)	
																				CC(=O)N[C@@H](CCCNC(=O)[C@H](CCCNC(=N)N)NC(=O)[C@H](Cc1ccc(O)cc1)NC(=O)[C@H](CC(C)C)NC(=O)[C@@H](N)CCCNC(=N)N)C(=O)N[C@@H](CCCNC(=O)[C@H](CCCNC(=N)N)NC(=O)[C@H](Cc1ccc(O)cc1)NC(=O)[C@H](CC(C)C)NC(=O)[C@@H](N)CCCNC(=N)N)C(=O)N[C@@H](CCCNC(=O)[C@H](CCCNC(=N)N)NC(=O)[C@H](Cc1ccc(O)cc1)NC(=O)[C@H](CC(C)C)NC(=O)[C@@H](N)CCCNC(=N)N)C(=O)N[C@@H](CCCNC(=O)[C@H](CCCNC(=N)N)NC(=O)[C@H](Cc1ccc(O)cc1)NC(=O)[C@H](CC(C)C)NC(=O)[C@@H](N)CCCNC(=N)N)C(N)=O [O4R]	MIC, M. luteus, H-Salt ([1]; ATCC 49,732, radial diffusion assay, high-salt (100 mM NaCl), triplicates): 6.9 µM; MIC, M. luteus, L-Salt ([1]; ATCC 49,732, radial diffusion assay, low-salt (without NaCl), triplicates): 1.8 µM; MIC, C. kefyr, H-Salt (Candida kefyr ATCC 37095; ATCC 37095, radial diffusion assay, high-salt (100 mM NaCl), triplicates): 0.8 µM; MIC, C. kefyr, L-Salt (Candida kefyr ATCC 37095; ATCC 37095, radial diffusion assay, low-salt (without NaCl), triplicates): 0.7 µM; MIC, C. albicans, H-Salt ([2]; ATCC 37092, radial diffusion assay, high-salt (100 mM NaCl), triplicates): 1.6 µM; MIC, C. albicans, L-Salt ([2]; ATCC 37092, radial diffusion assay, low-salt (without NaCl), triplicates): 1.4 µM; MIC, C. tropicalis, H-Salt ([3]; ATCC 37097, radial diffusion assay, high-salt (100 mM NaCl), triplicates): 1.5 µM; MIC, C. tropicalis, L-Salt ([3]; ATCC 37097, radial diffusion assay, low-salt (without NaCl), triplicates): 1.4 µM; MIC, P. aeruginosa, H-Salt ([4]; ATCC 27853, radial diffusion assay, high-salt (100 mM NaCl), triplicates): 4.8 µM; MIC, P. aeruginosa, L-Salt ([4]; ATCC 27853, radial diffusion assay, low-salt (without NaCl), triplicates): 2.1 µM; MIC, E. faecalis, H-Salt ([5]; ATCC 29212, radial diffusion assay, high-salt (100 mM NaCl), triplicates): > 500 µM; MIC, E. faecalis, L-Salt ([5]; ATCC 29212, radial diffusion assay, low-salt (without NaCl), triplicates): 6.6 µM; MIC, P. vulgaris, H-Salt ([6]; ATCC 49132, radial diffusion assay, high-salt (100 mM NaCl), triplicates): 2.2 µM; MIC, P. vulgaris, L-Salt ([6]; ATCC 49132, radial diffusion assay, low-salt (without NaCl), triplicates): 5.6 µM; MIC, E. coli, H-Salt ([7]; ATCC 25922, two-stage radial diffusion assay, high-salt (underlay gel 10 mM sodium phosphate, 0.03% TSB, 0.02% Tween-20, with 100 mM NaCl), 37 °C, x-intercept of dose-response curve, triplicates): 4.1 µM; MIC, E. coli, L-Salt ([7]; ATCC 25922, two-stage radial diffusion assay, low-salt (underlay gel 10 mM sodium phosphate, 0.03% TSB, 0.02% Tween-20, without NaCl), 37 °C, x-intercept of dose-response curve, triplicates): 0.7 µM; MIC, K. oxytoca, H-Salt ([8]; ATCC 49131, radial diffusion assay, high-salt (100 mM NaCl), triplicates): 2.4 µM; MIC, K. oxytoca, L-Salt ([8]; ATCC 49131, radial diffusion assay, low-salt (without NaCl), triplicates): 1.8 µM; MIC, S. aureus, H-Salt ([9]; strain 29213, radial diffusion assay, high-salt (100 mM NaCl), triplicates): 2.0 µM; MIC, S. aureus, L-Salt ([9]; strain 29213, radial diffusion assay, low-salt (without NaCl), triplicates): 7.3 µM
8.8	3.1	2.0	1.3	12.4	4.8	2.3	2.8	3.2	5.8	> 500	51.6	27.6	8.3	12.8	1.3	5.4	2.2	56.2	17.2	CC(=O)NCCC[C@H](NC(=O)[C@H](CCCNC(=N)N)NC(=O)[C@H](Cc1ccc(O)cc1)NC(=O)[C@H](CC(C)C)NC(=O)[C@@H](N)CCCNC(=N)N)C(=O)NCCC[C@H](NC(=O)[C@H](CCCNC(=N)N)NC(=O)[C@H](Cc1ccc(O)cc1)NC(=O)[C@H](CC(C)C)NC(=O)[C@@H](N)CCCNC(=N)N)C(=O)NCCC[C@H](NC(=O)[C@H](CCCNC(=N)N)NC(=O)[C@H](Cc1ccc(O)cc1)NC(=O)[C@H](CC(C)C)NC(=O)[C@@H](N)CCCNC(=N)N)C(N)=O [iO3R] (HELM PEPTIDE1{R.L.Y.R.[Orn]}|PEPTIDE2{[ac]}|PEPTIDE3{R.L.Y.R.[Orn]}|PEPTIDE4{R.L.Y.R.[Orn].[am]}$PEPTIDE1,PEPTIDE2,5:R3-1:R2|PEPTIDE1,PEPTIDE3,5:R2-5:R3|PEPTIDE3,PEPTIDE4,5:R2-5:R3$$$V2.0)	
